ChEMBL document CHEMBL3885881, “DrugMatrix”

Organism: Rattus norvegicus
Test: DrugMatrix - Regimen: Daily Repeat
Assay type: toxicity, organism-based, Sprague-Dawley
Set-up: regimen Daily Repeat, gender Male, age 6-8 weeks
Conditions: in vivo, iv, vehicle 100 % SALINE; for ABSOLUTE BASOPHIL / ABSOLUTE EOSINOPHIL / ABSOLUTE LYMPHOCYTE / ABSOLUTE MONOCYTE / ABSOLUTE SEGMENTED NEUTROPHIL / BASOPHIL / EOSINOPHIL / ERYTHROCYTE COUNT / HEMATOCRIT / HEMOGLOBIN / LEUKOCYTE COUNT / LYMPHOCYTE / MEAN CORPUSCULAR HEMOGLOBIN / MEAN CORPUSCULAR HEMOGLOBIN CONCENTRATION / MEAN CORPUSCULAR VOLUME / MONOCYTE / NEUTROPHIL / NUCLEATED RED BLOOD CELLS / PLATELET COUNT: tissue Blood; for ALANINE AMINOTRANSFERASE / ALBUMIN / ALKALINE PHOSPHATASE / ASPARTATE AMINOTRANSFERASE / BLOOD UREA NITROGEN / CARBON DIOXIDE / CHLORIDE / CHOLESTEROL / CREATINE PHOSPHOKINASE / CREATININE / GLUCOSE / LACTATE DEHYDROGENASE / LIPASE / PHOSPHORUS / POTASSIUM / SODIUM / TOTAL BILIRUBIN / TOTAL PROTEIN / URIC ACID: tissue Plasma
[1] = 7 mg/kg, 120 h, dose level Low, time 5 day
[2] = 41 mg/kg, 72 h, dose level High, time 3 day
[3] = 41 mg/kg, 120 h, dose level High, time 5 day

## CC(=O)N[C@@H]1[C@H](Oc2c3cc4cc2Oc2ccc(cc2Cl)[C@@H](O[C@@H]2O[C@@H](CO)[C@@H](O)[C@H](O)[C@@H]2NC(C)=O)[C@@H]2NC(=O)[C@H](NC(=O)[C@@H]4NC(=O)[C@H]4NC(=O)[C@@H](Cc5ccc(c(Cl)c5)O3)NC(=O)[C@H](N)c3ccc(O)c(c3)Oc3cc(O)cc4c3)c3ccc(O)c(c3)-c3c(O[C@H]4O[C@H](CO)[C@@H](O)[C@@H](O)[C@@H]4O)cc(O)cc3[C@@H](C(=O)O)NC2=O)O[C@@H](CO)[C@@H](O)[C@@H]1O
[1]
  ABSOLUTE BASOPHIL: 0 CELLS/uL
  ABSOLUTE EOSINOPHIL: 166 CELLS/uL
  ABSOLUTE LYMPHOCYTE: 15568 CELLS/uL
  ABSOLUTE MONOCYTE: 230.67 CELLS/uL
  ABSOLUTE SEGMENTED NEUTROPHIL: 1568.67 CELLS/uL
  BASOPHIL: 0%
  EOSINOPHIL: 1%
  ERYTHROCYTE COUNT: 5.77 x10E6/uL
  HEMATOCRIT: 36.27%
  HEMOGLOBIN: 13.63 G/DL
  LEUKOCYTE COUNT: 17.53 x10E3/uL
  LYMPHOCYTE: 88.67%
  MEAN CORPUSCULAR HEMOGLOBIN: 23.67 pg
  MEAN CORPUSCULAR HEMOGLOBIN CONCENTRATION: 37.57 G/DL
  MEAN CORPUSCULAR VOLUME: 62.97 fL
  MONOCYTE: 1.33%
  NEUTROPHIL: 9%
  NUCLEATED RED BLOOD CELLS: 0 /100WBC
  PLATELET COUNT: 1190.67 x10E3/uL
  ALANINE AMINOTRANSFERASE: 40.67 u/L
  ALBUMIN: 4.23 G/DL
  ALKALINE PHOSPHATASE: 395 u/L
  ASPARTATE AMINOTRANSFERASE: 84.33 u/L
  BLOOD UREA NITROGEN: 19.33 mg/dL
  CARBON DIOXIDE: 24 mmol/L
  CHLORIDE: 106.67 MEQ/L
  CHOLESTEROL: 59.33 mg/dL
  CREATINE PHOSPHOKINASE: 389.67 u/L
  CREATININE: 0.18 mg/dL
  GLUCOSE: 149 mg/dL
  LACTATE DEHYDROGENASE: 466.67 u/L
  LIPASE: 8.33 u/L
  PHOSPHORUS: 11.47 mg/dL
  POTASSIUM: 5.99 MEQ/L
  SODIUM: 144.47 MEQ/L
  TOTAL BILIRUBIN: 0.2 mg/dL
  TOTAL PROTEIN: 6.03 G/DL
  URIC ACID: 1.17 mg/dL
[2]
  ABSOLUTE BASOPHIL: 0 CELLS/uL
  ABSOLUTE EOSINOPHIL: 126.67 CELLS/uL
  ABSOLUTE LYMPHOCYTE: 16661.33 CELLS/uL
  ABSOLUTE MONOCYTE: 515.67 CELLS/uL
  ABSOLUTE SEGMENTED NEUTROPHIL: 1929.67 CELLS/uL
  BASOPHIL: 0%
  EOSINOPHIL: 0.67%
  ERYTHROCYTE COUNT: 5.53 x10E6/uL
  HEMATOCRIT: 35.03%
  HEMOGLOBIN: 13.17 G/DL
  LEUKOCYTE COUNT: 19.23 x10E3/uL
  LYMPHOCYTE: 86.67%
  MEAN CORPUSCULAR HEMOGLOBIN: 23.83 pg
  MEAN CORPUSCULAR HEMOGLOBIN CONCENTRATION: 37.6 G/DL
  MEAN CORPUSCULAR VOLUME: 63.4 fL
  MONOCYTE: 2.67%
  NEUTROPHIL: 10%
  NUCLEATED RED BLOOD CELLS: 0 /100WBC
  PLATELET COUNT: 1404 x10E3/uL
  ALANINE AMINOTRANSFERASE: 41.67 u/L
  ALBUMIN: 4.13 G/DL
  ALKALINE PHOSPHATASE: 271.33 u/L
  ASPARTATE AMINOTRANSFERASE: 67.33 u/L
  BLOOD UREA NITROGEN: 18.33 mg/dL
  CARBON DIOXIDE: 27 mmol/L
  CHLORIDE: 102 MEQ/L
  CHOLESTEROL: 61.67 mg/dL
  CREATINE PHOSPHOKINASE: 181 u/L
  CREATININE: 0.21 mg/dL
  GLUCOSE: 153.67 mg/dL
  LACTATE DEHYDROGENASE: 125.67 u/L
  LIPASE: 8.33 u/L
  PHOSPHORUS: 11.33 mg/dL
  POTASSIUM: 6.69 MEQ/L
  SODIUM: 143.47 MEQ/L
  TOTAL BILIRUBIN: 0.2 mg/dL
  TOTAL PROTEIN: 5.87 G/DL
  URIC ACID: 1.37 mg/dL
[3]
  ABSOLUTE BASOPHIL: 0 CELLS/uL
  ABSOLUTE EOSINOPHIL: 0 CELLS/uL
  ABSOLUTE LYMPHOCYTE: 12482 CELLS/uL
  ABSOLUTE MONOCYTE: 440.67 CELLS/uL
  ABSOLUTE SEGMENTED NEUTROPHIL: 1610.67 CELLS/uL
  BASOPHIL: 0%
  EOSINOPHIL: 0%
  ERYTHROCYTE COUNT: 5.88 x10E6/uL
  HEMATOCRIT: 36.7%
  HEMOGLOBIN: 13.8 G/DL
  LEUKOCYTE COUNT: 14.53 x10E3/uL
  LYMPHOCYTE: 86%
  MEAN CORPUSCULAR HEMOGLOBIN: 23.47 pg
  MEAN CORPUSCULAR HEMOGLOBIN CONCENTRATION: 37.6 G/DL
  MEAN CORPUSCULAR VOLUME: 62.47 fL
  MONOCYTE: 3%
  NEUTROPHIL: 11%
  NUCLEATED RED BLOOD CELLS: 0 /100WBC
  PLATELET COUNT: 1300.33 x10E3/uL
  ALANINE AMINOTRANSFERASE: 57.67 u/L
  ALBUMIN: 4.3 G/DL
  ALKALINE PHOSPHATASE: 395 u/L
  ASPARTATE AMINOTRANSFERASE: 79.33 u/L
  BLOOD UREA NITROGEN: 18.67 mg/dL
  CARBON DIOXIDE: 29.67 mmol/L
  CHLORIDE: 102.33 MEQ/L
  CHOLESTEROL: 69.67 mg/dL
  CREATINE PHOSPHOKINASE: 275 u/L
  CREATININE: 0.19 mg/dL
  GLUCOSE: 177 mg/dL
  LACTATE DEHYDROGENASE: 229 u/L
  LIPASE: 9 u/L
  PHOSPHORUS: 13.2 mg/dL
  POTASSIUM: 6.79 MEQ/L
  SODIUM: 148.17 MEQ/L
  TOTAL BILIRUBIN: 0.17 mg/dL
  TOTAL PROTEIN: 6.3 G/DL
  URIC ACID: 1.83 mg/dL
